The results in this text go back to doi:10.1101/2025.11.11.687791v2, “Structural basis for multiple binding modes of antimalarial ligands targeting Plasmodium falciparum NCR1” (biorxiv, 2026).

Common to all, as to type: binding
The target in experiment [1] is T1, PfNCR1 (Plasmodium falciparum, UniProt Q8I266).
T1 construct: gene NCR1; CHS added for structural samples
T1 sequence (Q8I266 1-1470): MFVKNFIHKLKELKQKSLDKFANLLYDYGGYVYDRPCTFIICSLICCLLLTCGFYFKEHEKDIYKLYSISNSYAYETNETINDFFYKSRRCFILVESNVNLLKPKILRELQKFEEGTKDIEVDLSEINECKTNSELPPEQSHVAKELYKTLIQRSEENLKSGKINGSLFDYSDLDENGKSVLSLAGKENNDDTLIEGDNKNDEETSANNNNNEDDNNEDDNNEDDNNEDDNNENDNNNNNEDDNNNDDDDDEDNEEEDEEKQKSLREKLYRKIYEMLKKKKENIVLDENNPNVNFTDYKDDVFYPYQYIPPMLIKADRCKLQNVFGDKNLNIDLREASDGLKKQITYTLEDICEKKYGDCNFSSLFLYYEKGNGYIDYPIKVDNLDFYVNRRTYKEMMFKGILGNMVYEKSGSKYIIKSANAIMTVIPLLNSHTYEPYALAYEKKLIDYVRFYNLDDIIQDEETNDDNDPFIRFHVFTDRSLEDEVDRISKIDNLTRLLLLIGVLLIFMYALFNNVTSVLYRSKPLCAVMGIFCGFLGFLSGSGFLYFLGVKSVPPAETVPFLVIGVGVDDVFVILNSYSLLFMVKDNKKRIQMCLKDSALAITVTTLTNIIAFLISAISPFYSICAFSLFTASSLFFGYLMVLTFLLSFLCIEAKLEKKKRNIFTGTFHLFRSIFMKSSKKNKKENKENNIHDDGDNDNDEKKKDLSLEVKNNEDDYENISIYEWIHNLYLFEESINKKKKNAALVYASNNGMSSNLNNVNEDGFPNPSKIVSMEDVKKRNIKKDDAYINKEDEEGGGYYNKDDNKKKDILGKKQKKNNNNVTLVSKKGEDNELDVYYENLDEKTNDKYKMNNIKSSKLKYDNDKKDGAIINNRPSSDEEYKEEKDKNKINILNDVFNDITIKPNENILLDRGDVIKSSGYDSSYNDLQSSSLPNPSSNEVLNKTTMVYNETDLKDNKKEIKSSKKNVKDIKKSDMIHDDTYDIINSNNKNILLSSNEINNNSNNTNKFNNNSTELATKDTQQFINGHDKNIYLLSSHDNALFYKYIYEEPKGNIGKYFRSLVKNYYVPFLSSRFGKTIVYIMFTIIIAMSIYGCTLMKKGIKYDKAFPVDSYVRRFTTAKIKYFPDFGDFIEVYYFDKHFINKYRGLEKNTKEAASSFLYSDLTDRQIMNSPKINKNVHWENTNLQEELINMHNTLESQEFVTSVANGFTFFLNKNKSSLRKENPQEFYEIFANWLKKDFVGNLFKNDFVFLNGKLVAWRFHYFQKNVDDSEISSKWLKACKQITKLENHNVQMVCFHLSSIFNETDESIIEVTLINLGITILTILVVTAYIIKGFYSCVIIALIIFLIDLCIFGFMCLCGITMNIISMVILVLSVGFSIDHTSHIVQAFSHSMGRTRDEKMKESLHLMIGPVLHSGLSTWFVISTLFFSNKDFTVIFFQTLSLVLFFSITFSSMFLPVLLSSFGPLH
The experiment in a line: tryptophan fluorescence quenching. The following applies: purified protein in GDN; ecto site.

Experiment [2] concerns the target T1, PfNCR1. The experiment in a line: cryo-EM structure of the complex, […] Å. To be noted: 1 mM compound; ecto site, displaces CHS.
In experiment [3] the target is T1, PfNCR1. As to the kind of experiment: cryo-EM structure of the complex. The following applies: ecto site, alongside CHS; GDN.

On to `CC(C)c1cccc(C(NC(=O)C2Cc3ccccc3CN2C(=O)c2cccc(N3CCOCC3)c2)C2CCCC2)c1` (stereo not drawn) [Compound 2, MMV028038], for which the “apparent Kd” value on PfNCR1 [1] is on record as “tryptophan quenching-based binding assays revealed the apparent Kd values in the micromolar range”. Also, at PfNCR1 [2], the “cryo-EM structure of the complex, 3.69 Å” value is listed as “this ligand completely displaces the CHS molecule in the ECD sterol site”. Regarding `COc1ccc(N2CCN(C(CNC(=O)c3c(F)cccc3F)c3ccc4c(c3)OCO4)CC2)cc1` (stereo not drawn) [Compound 4, G856-4236], on PfNCR1 [3], the “cryo-EM structure of the complex” value is on record as “the new compound was bound to the ecto site without displacing the sterol”.
